Test results: ChEMBL document CHEMBL3526148, “Cerebrospinal fluid can be used as a surrogate to assess brain exposures of breast cancer resistance protein and P-glycoprotein substrates” (Drug Metab Dispos, 2012); call rule not given here

What was measured:
Assay type in all cases: ADME, cell-based
[1] = molecular target: T1, Broad substrate specificity ATP-binding cassette transporter ABCG2 (Homo sapiens, UniProt Q9UNQ0); experiment: Inhibition of BCRP-mediated [3H]estrone-3-sulfate transport in human Caco2 cells at 3 uM after 30 mins; settings: caco-2, 0.5 h
T1 sequence (Q9UNQ0 whole entry): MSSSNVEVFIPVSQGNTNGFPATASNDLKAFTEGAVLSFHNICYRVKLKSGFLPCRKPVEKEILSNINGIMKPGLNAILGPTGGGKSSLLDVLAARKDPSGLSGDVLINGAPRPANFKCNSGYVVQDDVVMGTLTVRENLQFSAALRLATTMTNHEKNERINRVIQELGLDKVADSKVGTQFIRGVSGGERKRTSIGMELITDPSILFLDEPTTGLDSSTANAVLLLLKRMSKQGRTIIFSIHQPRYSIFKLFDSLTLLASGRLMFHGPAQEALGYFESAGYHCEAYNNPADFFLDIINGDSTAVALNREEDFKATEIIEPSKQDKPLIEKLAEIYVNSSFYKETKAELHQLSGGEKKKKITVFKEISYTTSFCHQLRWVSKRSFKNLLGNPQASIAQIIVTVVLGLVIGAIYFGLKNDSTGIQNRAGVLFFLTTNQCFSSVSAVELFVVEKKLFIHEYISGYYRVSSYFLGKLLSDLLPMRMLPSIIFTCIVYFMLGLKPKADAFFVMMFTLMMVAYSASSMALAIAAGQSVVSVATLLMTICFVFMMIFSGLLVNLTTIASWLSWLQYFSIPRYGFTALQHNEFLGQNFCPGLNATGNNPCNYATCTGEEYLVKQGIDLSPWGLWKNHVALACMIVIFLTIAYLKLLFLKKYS

[2] = Inhibition of P-gp-mediated [3H]-digoxin transport in human Caco2 cells at 3 uM after 30 mins; settings: caco-2, 0.5 h
[3] = Inhibition of P-gp-mediated [3H]-digoxin transport in human Caco2 cells at 10 to 50 uM after 30 mins; settings: caco-2, 0.5 h
[4] = Apparent permeability from apical to basolateral side in human Caco2 cells at 5 uM after 2 hrs; settings: Caco-2
[5] = Apparent permeability from basolateral to apical side in human Caco2 cells at 5 uM after 2 hrs; settings: Caco-2
[6] = molecular target: T1, Broad substrate specificity ATP-binding cassette transporter ABCG2; experiment: Inhibition of BCRP-mediated [3H]estrone-3-sulfate transport in human Caco2 cells at 1 uM after 30 mins; settings: caco-2, 0.5 h
[7] = Inhibition of P-gp-mediated [3H]-digoxin transport in human Caco2 cells at 1 uM after 30 mins; settings: caco-2, 0.5 h

Question: With COc1cc2c(cc1OC)CN(CCc1ccc(NC(=O)c3cccc4c(=O)c5cccc(OC)c5[nH]c34)cc1)CC2 as the compound, how does the “inhibition (INH)” value [1] read?
Answer: Active

Question: And the “inhibition (INH)” value [2]?
Answer: Active

Question: Which “inhibition (INH)” value [2] does the source give for COc1ccc2c3c([nH]c2c1)[C@H](CC(C)C)N1C(=O)[C@H](CCC(=O)OC(C)(C)C)NC(=O)[C@@H]1C3 here?
Answer: Not Active

Question: With O=C1CN(/N=C/c2ccc(-c3ccc([N+](=O)[O-])cc3)o2)C(O)=N1 [DANTROLENE] as the compound, how does the “inhibition (INH)” value [3] read?
Answer: Not Active

Question: What about the Papp A→B at 2 h, 5 µM [4] of the same compound?
Answer: 2 ×10⁻⁶ cm/s

Question: What about the Papp B→A at 2 h, 5 µM [5] of the same compound?
Answer: 9.8 ×10⁻⁶ cm/s

Question: With C/C=C/C[C@@H](C)C(=O)[C@H]1C(=O)N[C@@H](C(C)C)C(=O)N(C)CC(=O)N(C)[C@@H](CC(C)C)C(=O)N[C@@H](C(C)C)C(=O)N(C)[C@@H](CC(C)C)C(=O)N[C@@H](C)C(=O)N[C@H](C)C(=O)N(C)[C@@H](CC(C)C)C(=O)N(C)[C@@H](CC(C)C)C(=O)N(C)[C@@H](C(C)C)C(=O)N1C [VALSPODAR] as the compound, how does the “inhibition (INH)” value [6] read?
Answer: Not Active

Question: And the “inhibition (INH)” value [7]?
Answer: Active
